Assay results as given in US6043283A, “Tyramine compounds and their neuronal effects” (priority 1997, dated 2000).
“Also recorded” adds a separate entry of the source. Read-outs that look alike come from different tables or passages of the source.

Tests used:
[1] = test system: rat microglia; format: binding; details: 6 hours, 37° C.
Procedure: Synthetic Aβ peptides were linked to Sepharose beads (Pharmacia) in coupling buffer (0.1 M NaHCO3, 0.5 M NaCl, pH 8.3) containing 20% DMSO. This solution was combined with an appropriate volume of CNBr-activated Sepharose 4B (10 mg protein per ml of bead; Pharmacia protocol) and mixed overnight on a platform mixer at room temperature. Remaining active groups on the beads were blocked by 1.0 M glycine and excess uncoupled peptides removed from this bead-peptide complex by washing with three cycles of alternating pH (0.1 M acetate buffer, pH 4.0, followed by 0.1 M Tris-HCL buffer, pH 8.0, each buffer containing 0.5 M NaCl). Coupled beads (10^4 per ml) were placed in 35 mm culture dishes covered with 250,000 adhering microglia at 37° C. in 1.5 ml N2 medium in accordance with the procedure of Giulian et al., 1995a. The numbers of microglia which detached from the plate and bound to coupled beads were determined at the end of a 6 hour incubation period by inverted phase microscopy with 100 beads scored from each of three sister cultures. Glycine and bovine serum albumin (BSA) coupled beads were used as controls.

[2] = test system: rat microglia / hippocampal neurons; details: for neuron loss with conditioned media from microglia: 10% vol/vol conditioned media, microglia with 1 μmole/l peptide; for induction of neurotoxic microglia / neuron killing: rat microglia, mostly 1 μmole/l; for killing of neurons: rat, hippocampal neurons, 72 h, 1 µM
[3] = test system: rat microglia; assay: microglial morphology / reactivity; format: cell-based
Procedure: Equal amounts of plaque protein (normalized to total amine content at 400 μmoles/l) were added to neuronal cultures in the presence (100,000 cells per culture) or absence of rat microglia. […] The chromatogram was developed with 80% glass distilled formic acid at a flow rate of 0.3 ml per minute and monitored at 280 nm.
Bright field photomicrographs of rat microglia cultures exposed to peak S1 (FIG. 20A) or peak S5 (FIG. 20B) and immuno-stained for the presence of Aβ.
FIGS. 22A-F depict cellular responses upon exposure to synthetic Aβ peptides. […] Bar=25 microns.

[4] = test system: human microglia; assay: induction of neuron-killing human microglia; format: cell-based; details: 1 μmole/liter synthetic peptides
[5] = test system: reactive microglia in rat neocortex; assay: brain inflammatory response after infusion into neocortex of adult rat; format: in vivo; details: 0.5 nmoles Aβ1-42, co-infusion of 1.0 nmole peptide; 5 days
[6] = format: physicochemical; details: chemically defined culture media, 37° C.; Table 2
Source text: Solubility of peptides is described for chemicallydefined culture media a […]

[7] = test system: NTox released by Aβ1-42-stimulated microglia (neuron killing); assay: cells; format: cell-based, rat; details: 72 hours; FIG. 30 experiment
[8] = test system: human microglia; assay: nitrite/nitrate production, human microglia; format: cell-based
Procedure: Nitrites and nitrates, stable byproducts of nitric oxide synthetase (NOS) served as markers for nitric oxide (NO) synthesis (Ignarro, 1990). […]; for 24 to 72 hours incubated in the presence of neuritic/core plaques or Aβ peptides) were measured by the Griess method set forth by Beckman et al., 1990 against a standard curve ranging from 0.1 to 50.0 μM nitrate.

[9] = test system: rat microglia; assay: binding of Aβ-coupled microspheres to microglia; details: 4 hours at 37° C. (72 h in FIG. 23)
[10] = test system: scavenger receptor II mRNA / microglia; assay: microsphere implants in brain neocortex: reactive microglia and scavenger receptor mRNA; format: in vivo
Source text: FIGS. 7A, B, and C show SpheresAβ1-42 in vivo. […]. […] Microglia were visualized by uptake of fluorescent labeled acetylated LDL, DiI-ac-LDL Bar=40 μm, FIG. 7A; 25 μm FIG. 7B and C.

[11] = test system: Aβ1-42-stimulated microglia; format: cell-based, rat; details: for blocking of Aβ1-42 induced microglial neurotoxicity by peptides: 10 μmoles/liter peptide, 1 μmole/liter Aβ1-42
Summary of the method: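 E18 rat hippocampal cultures, microglia depleted with saporin–ac-LDL (10 μg/ml, 12 h) on day 14, then given test substances at 10μM with or without exogenous microglia (100,000 cells) for 72 h. Neurons immunostained (NF plus MAP-2) and nuclei counted by fluorescence microscopy; survival expressed as % of parallel untreated controls.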

[12] = test system: microglia; assay: inhibition of SpheresAβ1-42 binding to microglia; set-up: species or system rat; details: 10 μmoles/l, 4 hours, 37° C.
[13] = test system: kidney cells; assay: competition with microspheres coupled to Aβ1-42, kidney cells; format: binding; details: 4 hours at 37° C.
[14] = test system: macrophages; assay: competition with microspheres coupled to Aβ1-42, macrophages; format: binding; details: 4 hours at 37° C.
[15] = test system: plaque-stimulated microglia; assay: blocking of plaque-induced microglial neurotoxicity; format: cell-based, rat; details: FIG. 16C
[16] = test system: quinolinic acid (QUIN); assay: protection of neurons against quinolinic acid; format: cell-based; details: QUIN (100 μM in FIG. 13)
Source text: (§1) FIG. 32 is a graph showing the specificity of tyramine compounds to NTox. […]

[17] = test system: NTox; assay: protection of neurons against isolated NTox applied directly; format: cell-based
Source text: FIG. 32 is a graph showing the specificity of tyramine compounds to NTox. […].
Initial studies to characterize the neuroprotective effect of tyramine compounds employed microglia-neuron co-culture assays in the presence of Aβ or isolated senile plaques. Inhibition of neuron killing in […]--inhibition of microglial activation by Aβ or plaques; inhibition of NTox production and release by microglia; or inhibition of action of NTox upon neurons. […] Effective doses in the low nmolar range show the tyramine compounds to be very potent agents compared with low μmolar range of other neuroprotective drugs under development for neurological disorders.

[18] = test system: human microglia stimulated with S5; format: cell-based;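 note: drugs applied at 10 µM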
[19] = test system: AMAA; assay: protection of neurons against AMAA; format: cell-based; details: FIG. 32
Source text: as §1

[20] = test system: NMDA receptor; assay: whole cell current elicited by NMDA in Xenopus oocytes injected with NMDA R1 and R2 subunit cRNAs; format: cell-based; details: FIG. 34
Source text: FIG. 34 is a graph shorting the % maximal current peak elicited by NMDA, octopamine and tyramine compounds in the presence of a given NMDA concentration. […].
The precise mechanism of NTox that leads to the destruction of neurons is only partially characterized. Based upon extensive testing with receptor antagonists, it has been discovered that two classes of neurotransmitter receptors are involved--the n-methyl D-aspartate (NMDA) class of […] receptors and the Muscarinic (M receptors) class of cholinergic receptors. […] […]. Further study to determine if tyramine compounds act upon the NMDA receptor itself involved expression of the NMDA receptor complex in Xenopus oocytes and measurement of ionic fluxes across the oocyte membrane that are elicited by NMDA. […] […]. […] Thus, tyramine compounds appear to have several actions, one of which is upon the NMDA receptor.

[21] = test system: hippocampal neurons; format: cell-based, rat; details: 100 μmoles/l
[22] = test system: astroglia; format: cell-based, rat; details: 100 μmoles/l
Source text: FIGS. 21A-D display toxic actions of synthetic Aβ peptides upon neurons. […]. There is, however, a generalized cytotoxic action by Aβ25-35 at>30 μmoles/l on both neurons (FIG. 21A) and astroglia (FIG. 21B). In the absence of microglia, none of the Aβ peptides (at 1 μmole/l) produce destruction of neurons. […] These observations point to the need to deplete neuron cultures of microglia when assessing mechanisms of Aβ toxicity. […]; FIG. 21E).
. Briefly, hippocampal cells obtained from embryonic stage 18 rat fetuses were dispersed mechanically in the presence of 0.125% trypsin and plated onto poly-L-lysine coated glass coverslips in 24 well plates at 250,000 cells per well (resulting in adhering cell densities of about 1250 cells per mm^2) in chemically-defined N2 culture media containing 5% fetal bovine serum. Gradual reduction of serum began on day 10 in vitro with daily 1:1 volume replacements with chemically-defined media, until a final concentration of 0.6% serum was achieved. […]
On day 14 of culture, immediately following saporin treatment, test substances were added to the hippocampal cultures. […] Immuno-labeled cells per field and nuclei per field were scored at 200X magnification using fluorescence microscopy. Data were expressed as % mean survival expressed in terms of parallel untreated control cultures after scoring at least 20 randomly selected fields for each of 3 coverslips.

With “Aβ1-42: synthetic human β-amyloid peptide 1-42” the “microglial adherence to coupled Sepharose beads” value [1] was “anchored to beads; also recorded: provided an anchoring site for microglia”, the “neuron killing, microglia separated from neurons (no contact)” value [2] was “stimulated microglia to destroy neurons” and the neuron killing ([2]; 100 nmoles/liter, rat microglia 500 cells per mm^2) was “destroyed nearly all neurons”. For the same compound, the “neuron loss with conditioned media from microglia” value [2] was “Significant neuron loss occurred”, the neuron kill ([2]; "aged" Aβ1-42) was 77.5%±2.6% and the neuron kill ([2]; fresh Aβ1-42) was 75.1%±5.8%. For the same compound, the “induction of neurotoxic microglia / neuron killing” value ([2]; listed as 1-42) was “induced toxic effects”, the killing of neurons [2] was 70-80% and the “microglial morphology / reactivity” value [3] was “morphological changes with retraction of processes”. The “induction of neurotoxic human microglia” value [4] was “very potent inducers of neurotoxic human microglia; also recorded: stimulated release of neurotoxin from human microglia”, the “local brain inflammatory response” value [5] was “produces an inflammatory response” and the Solubility [6] was “very insoluble”. For the same compound, the “neurons destroyed by Aβ-stimulated microglia” value [7] was “about 65%”, the “release of nitrate or nitrite, human microglia” value [8] was “did not bring about release of nitrate or nitrites” and the “binding of peptide-coupled microspheres to microglia” value (shortened to “binding … to microglia”) [9] was “marked glial binding; also recorded: readily bind; also recorded: readily engulfed by microglia”.
With “SpheresAβ1-42: Aβ1-42 coupled to (fluorescent) microspheres” the “induction of neurotoxic microglia / neuron killing” value [2] was “induced neuron killing”, the killing of neurons [2] was 70-80% and the “increase in scavenger receptor mRNA vs undamaged tissue or SphereBSA” value ([10]; two weeks after implantation) was 5 fold. The “reactive microglia around implanted spheres” value ([10]; weeks after implantation) was “chronically stimulate the presence of reactive cells”, the “binding … to microglia” value [9] was “rapidly engulfed by cultured microglia” and the “binding … to microglia” value ([9]; listed as Aβ1-42-spheres) was “localized specifically within DiI-ac-LDL(+) microglia”. The “binding … to microglia” value ([9]; listed as Aβ1-42 coupled-microspheres) was “readily taken up by microglia”.
With “Aβ17-43: Aβ peptide residues 17-43 (LVFFAEDVGSNKGAIIGLMVGGVVIAT; Amyloid-beta protein 42; UniProt P05067 688-714, looked up, fragment)” the “blocking of Aβ1-42 induced microglial neurotoxicity by peptides” value [11] was “did not”, the “neuron loss with conditioned media from microglia” value [2] was “undamaged” and the “microglial morphology / reactivity” value [3] was “does not alter microglial morphology”. For the same compound, the “induction of neurotoxic human microglia” value [4] was “inactive” and the “inhibition of SpheresAβ1-42 binding by peptides” value [12] was “did not”.
With “Aβ10-16: Aβ peptide residues 10-16 (YEVHHQK; Amyloid-beta protein 42; UniProt P05067 681-687, looked up, fragment)” the “blocking of Aβ1-42 induced microglial neurotoxicity by peptides” value [11] was “blocked neurotoxin production”, the IC50 ([11]; read-out: ED50 (blocking of Aβ1-42 induced neurotoxicity), FIG. 16B) was about 30 nM and the “competition with Aβ1-42 microspheres, kidney cells” value [13] was “no changes in binding”. The “inhibition of SpheresAβ1-42 binding by peptides” value [12] was “effectively prevented”, the “competition with Aβ1-42 microspheres, macrophages” value [14] was “competition occurs with the macrophages in a dose dependent manner” and the “blocking of plaque-induced microglial toxicity by peptides” value [15] was “blocked plaque-induced toxicity in vitro”. For the same compound, the “binding … to microglia” value [9] was “readily bind; also recorded: able to bind to microglia”.
For `NC(CCCP(=O)(O)O)C(=O)O` (stereo not drawn) [AP5], the “drug blockade of neuron killing, rat microglia” value [11] was “prevented neuronal loss; also recorded: prevented neuron death”, the “protection against quinolinic acid” value [16] was “prevented from killing neurons” and the “neuroprotective effects against NTox, concentration range” value [17] was about 100 nM. For the same compound, the “inhibition of killing action of NTox applied to neurons” value ([17]; isolated NTox, FIGS. 13, 32) was “NTox can be blocked”, the “drug blockade of neuron killing, human microglia” value [18] was “prevented neuron death” and the “protection against AMAA” value [19] was “prevented from killing neurons”. For the same compound, the “effect on current elicited by NMDA” value [20] was “could be blocked”.
With “Aβ25-35: Aβ peptide residues 25-35 (GSNKGAIIGLM; Amyloid-beta protein 42; UniProt P05067 696-706, looked up, fragment)” the destruction of neurons [21] was about 90%, the Solubility [6] was “soluble” and the “binding … to microglia” value [9] was “little cell binding”. For the same compound, the destruction of glia [22] was about 90%.
